This note sets out measurements from patent US20110172217A1, “RING-FUSED MORPHOLINE DERIVATIVE HAVING PI3K-INHIBITING ACTIVITY” (Shionogi & Co., Ltd., priority 2008, published 2011).

For series [1], the target named is T1, human ether-a-go-go related gene (hERG) channel (Homo sapiens, UniProt Q12809).
T1 construct: expressed in transfected cells; host or cells: HEK293
Kind of series: hERG test, whole-cell patch-clamp, IKr. The following applies: 1 μmol/L compound; HEK293 cell expressing hERG. Format: cell-based. From the text:
For the purpose of risk evaluation of QT interval extension of electrocardiogram, the activity on delayed rectification K^+ current (IKr), which plays an important role in a cardiac ventricle repolarization process, was examined using the HEK293 cell that was made to express human ether-a-go-go related gene (hERG) channel.
Using an automatic patch-clamp system (PatchXpress 7000A, Axon Instruments Inc.), by a whole-cell patch-clamp method, after the cell was maintained at a membrane potential of −80 mV, IKr induced upon applying depolarizing stimulation of +50 mV for 2 seconds and further applying repolarizing stimulation of −50 mV for 2 seconds was recorded. After generated electric current became stable, a test substance dissolved at an intended concentration in extracellular fluid (137 mmol/L NaCl, 4 mmol/L KCl, 1.8 mmol/L CaCl2.2H2O, 1 mmol/L MgCl2.6H2O, 10 mmol/L glucose, 10 mmol/L HEPES (4-(2-hydroxyethyl)-1-piperazineethanesulfonic acid), pH=7.4) was applied to the cell for 10 minutes under room temperature condition. From the obtained IKr, the absolute value of the maximum tail current was measured using analysis software (DataXpress ver. 1, Molecular Devices Corporation) and the value of the electric current in a maintained membrane potential as baseline. Moreover, an inhibition ratio for the maximum tail current prior to the application of the test substance was calculated and then compared with a group of media-application (0.1% dimethylsulfoxide solution) to evaluate influence of the test substance on IKr.
Background: hERG is a cardiac potassium channel; its block is linked to QT prolongation.

The nature of series [2]: Solubility test in artificial intestinal juice pH 6.8. It counts as physicochemical. The following applies: kinetic from dmso stock, artificial intestinal juice pH 6.8, 1% DMSO, 25° C. The method, then:
The solubility of a compound was determined under a condition in which 1% DMSO was added. 10 mmol/L compound solution was prepared using DMSO, and then 6 μL of the compound solution was added to 594 μL of artificial intestinal juice in pH 6.8 (to 250 mL of 0.2 mol/L potassium dihydrogen phosphate reagent solution was added 118 mL of 0.2 mol/L NaOH reagent solution and water to provide a final volume of 1000 mL). After standing at 25° C. for 16 hours, the mixed solution was filtered with suction. The filtrate was diluted twice with methanol/water (1/1), and then a concentration in the filtration was measured with HPLC or LC/MS/MS by the absolute calibration method.

A further series has as its target T2, CYP2C19 (Homo sapiens, UniProt P33261).
T2 construct: enzyme: pooled human liver microsome 0.2 mg protein/mL; from tissue; host or cells: pooled human liver microsomes
The series can be described thus: CYP inhibition test, 4′-hydroxylation of mephenyloin. Format: in vitro ADME. The following applies: pooled human liver microsome; one of 5 kinds. From the text:
O-de-ethylation of 7-ethoxyresorufin (CYP1A2), methyl-hydroxylation of tolbutamide (CYP2C9), 4′-hydroxylation of mephenyloin (CYP2C19), O-demethylation of dextromethorphan (CYP2D6), and hydroxylation of terfenadine (CYP3A4), which are typical substrate for metabolic reactions of human main CYP5 molecular species (CYP1A2, 2C9, 2C19, 2D6, and 3A4), were adopted as indexes.
The reaction conditions are as follows: substrate: 0.5 μmol/L of ethoxyresorufin (CYP1A2), 100 μmol/L of tolbutamide (CYP2C9), 50 μmol/L of S-mephenyloin (CYP2C19), […] of dextromethorphan (CYP2D6), and 1 μmol/L of terfenadine (CYP3A4); reaction time; 15 minutes; reaction temperature: 37° C.; enzyme: pooled human liver microsome 0.2 mg protein/mL; test drug concentration: 1, 5, 10, and 20 μmol/L (4 points).
In a 96-well plate, as a reaction solution, five kinds of substrates, a human liver microsome, and a test drug were added to 50 mmol/L Hepes buffer solution in the aforementioned ratio. A coenzyme NADPH was added to start a metabolic reaction, which is an index. After reacting at 37° C. for 15 minutes, a solution of methanol/acetonitrile (1/1 (v/v)) was added to quench the reaction. After centrifugation at 3000 rpm for 15 minutes, resorufin (CYP1A2 metabolite) in the supernatant was quantitated with a fluorescence multilabel counter, and hydroxylated tolbutamide (CYP2C9 metabolite), 4′-hydroxylated mephenyloin (CYP2C19 metabolite), […], terfenadine in alcohol form (CYP3A4 metabolite) were quantitated with LC/MS/MS.
The case wherein only DMSO (a solvent which dissolved a drug) was added to a reaction system was defined as a control (100%). When a test drug solution was added, the remaining activity (%) at each concentration was calculated, and then IC50 was calculated with a concentration and an inhibition ratio by an inverse estimation using a logistic model.
A general note: Liver microsomes are vesicles of endoplasmic reticulum, rich in cytochrome P450 enzymes.

T2 sequence (P33261 whole entry): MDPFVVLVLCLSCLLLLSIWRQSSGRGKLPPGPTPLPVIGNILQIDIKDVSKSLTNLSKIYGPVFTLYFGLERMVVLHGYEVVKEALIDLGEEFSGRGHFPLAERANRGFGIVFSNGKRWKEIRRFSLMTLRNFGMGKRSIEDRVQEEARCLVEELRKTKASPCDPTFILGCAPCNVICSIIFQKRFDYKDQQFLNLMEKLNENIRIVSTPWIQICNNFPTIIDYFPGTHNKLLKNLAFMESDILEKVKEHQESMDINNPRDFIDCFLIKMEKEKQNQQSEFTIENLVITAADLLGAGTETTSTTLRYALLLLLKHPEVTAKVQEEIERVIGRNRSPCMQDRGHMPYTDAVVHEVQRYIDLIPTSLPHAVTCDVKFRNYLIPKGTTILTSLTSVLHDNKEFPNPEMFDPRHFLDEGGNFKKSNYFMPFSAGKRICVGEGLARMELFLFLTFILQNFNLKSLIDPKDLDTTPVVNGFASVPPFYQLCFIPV
T1 sequence (Q12809 whole entry): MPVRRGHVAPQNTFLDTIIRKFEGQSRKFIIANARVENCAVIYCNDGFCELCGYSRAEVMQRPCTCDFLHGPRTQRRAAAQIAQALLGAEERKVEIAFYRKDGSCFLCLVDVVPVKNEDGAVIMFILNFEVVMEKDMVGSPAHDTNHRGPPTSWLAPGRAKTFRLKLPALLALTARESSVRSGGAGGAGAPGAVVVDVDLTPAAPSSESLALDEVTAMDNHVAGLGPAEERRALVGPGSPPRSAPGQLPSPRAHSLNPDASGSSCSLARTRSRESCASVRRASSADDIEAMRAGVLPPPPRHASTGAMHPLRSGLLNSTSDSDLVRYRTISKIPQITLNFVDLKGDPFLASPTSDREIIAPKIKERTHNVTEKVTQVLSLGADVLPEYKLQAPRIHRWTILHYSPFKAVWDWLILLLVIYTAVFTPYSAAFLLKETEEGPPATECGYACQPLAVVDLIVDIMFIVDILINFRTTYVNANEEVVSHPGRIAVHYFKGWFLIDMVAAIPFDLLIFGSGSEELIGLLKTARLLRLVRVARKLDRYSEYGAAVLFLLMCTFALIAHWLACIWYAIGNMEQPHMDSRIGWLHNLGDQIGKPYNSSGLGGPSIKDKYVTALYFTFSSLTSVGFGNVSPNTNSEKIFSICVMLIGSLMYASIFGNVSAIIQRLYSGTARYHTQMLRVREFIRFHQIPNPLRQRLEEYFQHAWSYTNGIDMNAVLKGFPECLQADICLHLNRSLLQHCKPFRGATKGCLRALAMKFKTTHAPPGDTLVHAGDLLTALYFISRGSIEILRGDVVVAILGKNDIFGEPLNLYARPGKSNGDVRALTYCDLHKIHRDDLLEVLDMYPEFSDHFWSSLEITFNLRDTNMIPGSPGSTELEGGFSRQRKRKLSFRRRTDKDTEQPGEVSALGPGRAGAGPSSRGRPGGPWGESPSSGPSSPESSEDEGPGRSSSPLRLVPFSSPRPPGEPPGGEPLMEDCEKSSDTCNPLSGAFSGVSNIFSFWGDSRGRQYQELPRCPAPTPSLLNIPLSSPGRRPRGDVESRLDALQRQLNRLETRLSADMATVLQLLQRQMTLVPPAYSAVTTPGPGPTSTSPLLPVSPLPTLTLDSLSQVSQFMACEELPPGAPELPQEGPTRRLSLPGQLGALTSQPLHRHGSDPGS

`O=C(O)c1ccccc1Nc1ccc2c(n1)N(C(=O)Nc1ccccc1)CCO2` [Compound I-145]: the “hERG inhibition ratio for the maximum tail current (IKr)” value in series [1] was 15%.
On to `O=C(O)COc1cccc(Nc2ccc3c(n2)N(C(=O)Nc2ccccc2)CCO3)c1` [Compound I-240], for which the solubility at 16 h in series [2] is over 50 µM. In addition, the IC50 against CYP2C19 was over 20 µM.

By solubility is commonly meant the concentration that dissolves in the medium under given conditions. Low readings indicate a poorly soluble substance, high ones a readily soluble substance. One may read the IC50 as the concentration that gives 50% inhibition. Higher therefore signals weaker potency.
